# Experimental data as given in PubChem BioAssay (NCI).
#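 Tested at 5 concentrations; 48 h exposure; 96-well plates; endpoints linearly interpolated, else capped at highest concentration. TGI denotes the concentration required for complete inhibition of growth.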
# Assays:
# Test in all cases: NCI-60 cell line screen, 48 h
# [1] = test system: UACC-62 melanoma
# [2] = test system: M19-MEL melanoma
# [3] = test system: SW-620 colon
# [4] = test system: ACHN renal
# [5] = test system: SK-MEL-2 melanoma
# [6] = test system: HCT-15 colon
# [7] = test system: OVCAR-8 ovarian
# [8] = test system: DMS 114 small cell lung
# [9] = test system: UACC-257 melanoma
# [10] = test system: LOX IMVI melanoma
# [11] = test system: U251 CNS
# [12] = test system: HOP-62 NSCLC
# [13] = test system: IGROV1 ovarian
# [14] = test system: XF 498 CNS
# [15] = test system: RXF-631 renal
# [16] = test system: NCI-H522 lung
# [17] = test system: OVCAR-3 ovarian
# [18] = test system: SF-268 CNS
# [19] = test system: SF-295 CNS
# [20] = test system: RPMI-8226 leukemia
# [21] = test system: EKVX NSCLC
# [22] = test system: DMS 273 small cell lung
# [23] = test system: NCI-H460 lung
# [24] = test system: MALME-3M melanoma
# [25] = test system: OVCAR-4 ovarian
# [26] = test system: K-562 leukemia
# [27] = test system: HL-60(TB) leukemia
# [28] = test system: LXFL 529 NSCLC
# [29] = test system: HOP-92 NSCLC
# [30] = test system: 786-0 renal
# [31] = test system: NCI-H23 lung
# [32] = test system: CCRF-CEM leukemia
# [33] = test system: SK-MEL-5 melanoma
# [34] = test system: OVCAR-5 ovarian
# [35] = test system: M14 melanoma
# [36] = test system: KM20L2 colon
# [37] = test system: MOLT-4 leukemia
# [38] = test system: CAKI-1 renal
# [39] = test system: SNB-75 CNS
# [40] = test system: A549 NSCLC
# [41] = test system: A498 renal
# [42] = test system: COLO 205 colon
# [43] = test system: RXF 393 renal
# [44] = test system: SK-OV-3 ovarian
# [45] = test system: KM12 colon
# [46] = test system: NCI-H226 lung
# [47] = test system: SNB-19 CNS
# [48] = test system: UO-31 renal
# [49] = test system: HT29 colon
# [50] = test system: HOP-18 NSCLC
# [51] = test system: TK-10 renal
# [52] = test system: SK-MEL-28 melanoma
# [53] = test system: SN12C renal
# [54] = test system: SF-539 CNS
# [55] = test system: SR leukemia
# [56] = test system: DLD-1 colon
# [57] = test system: HCT-116 colon
# [58] = test system: HCC-2998 colon
# [59] = test system: SNB-78 CNS
compound,measurement,setting,value
C=CCN(N=O)C(=O)N(CCC)CCCCC(NC(C)=O)C(=O)NCc1ccccc1 (stereo not given),TGI,[1],> 100 µM
same,TGI,[2],> 100 µM
same,TGI,[3],> 100 µM
same,TGI,[4],> 100 µM
same,TGI,[5],> 100 µM
same,TGI,[6],> 100 µM
same,TGI,[7],> 100 µM
same,TGI,[8],> 100 µM
same,TGI,[9],> 100 µM
same,TGI,[10],> 100 µM
same,TGI,[11],> 100 µM
same,TGI,[12],> 100 µM
same,TGI,[13],> 100 µM
same,TGI,[14],> 100 µM
same,TGI,[15],> 100 µM
same,TGI,[16],> 100 µM
same,TGI,[17],> 100 µM
same,TGI,[18],> 100 µM
same,TGI,[19],> 100 µM
same,TGI,[20],> 100 µM
same,TGI,[21],> 100 µM
same,TGI,[22],> 100 µM
same,TGI,[23],> 100 µM
same,TGI,[24],> 100 µM
same,TGI,[25],> 100 µM
same,TGI,[26],> 100 µM
same,TGI,[27],54.4 µM
same,TGI,[28],> 100 µM
same,TGI,[29],> 100 µM
same,TGI,[30],> 100 µM
same,TGI,[31],> 100 µM
same,TGI,[32],> 100 µM
same,TGI,[33],> 100 µM
same,TGI,[34],> 100 µM
same,TGI,[35],> 100 µM
same,TGI,[36],> 100 µM
same,TGI,[37],> 100 µM
same,TGI,[38],> 100 µM
same,TGI,[39],> 100 µM
same,TGI,[40],> 100 µM
same,TGI,[41],> 100 µM
same,TGI,[42],> 100 µM
same,TGI,[43],> 100 µM
same,TGI,[44],> 100 µM
same,TGI,[45],> 100 µM
same,TGI,[46],> 100 µM
same,TGI,[47],> 100 µM
same,TGI,[48],> 100 µM
same,TGI,[49],83.6 µM
same,TGI,[50],> 100 µM
same,TGI,[51],> 100 µM
same,TGI,[52],> 100 µM
same,TGI,[53],> 100 µM
same,TGI,[54],> 100 µM
CSC(=S)NNC(=O)c1ccncc1,TGI,[1],31.1 µM
same,TGI,[2],35.8 µM
same,TGI,[3],23.6 µM
same,TGI,[4],36.2 µM
same,TGI,[5],33.9 µM
same,TGI,[55],47.3 µM
same,TGI,[6],28.3 µM
same,TGI,[7],40.6 µM
same,TGI,[56],34.6 µM
same,TGI,[8],28.6 µM
same,TGI,[9],56.7 µM
same,TGI,[10],33.6 µM
same,TGI,[11],41.9 µM
same,TGI,[12],70.2 µM
same,TGI,[13],32.7 µM
same,TGI,[14],50 µM
same,TGI,[15],> 100 µM
same,TGI,[16],31.4 µM
same,TGI,[17],51.3 µM
same,TGI,[18],63.3 µM
same,TGI,[19],46.9 µM
same,TGI,[20],47.8 µM
same,TGI,[21],57.6 µM
same,TGI,[22],46.1 µM
same,TGI,[23],> 100 µM
same,TGI,[24],35.3 µM
same,TGI,[26],38.5 µM
same,TGI,[27],39.9 µM
same,TGI,[28],29.3 µM
same,TGI,[57],38.3 µM
same,TGI,[29],60.8 µM
same,TGI,[30],30.8 µM
same,TGI,[31],33.2 µM
same,TGI,[32],43.1 µM
same,TGI,[33],62.6 µM
same,TGI,[34],48.7 µM
same,TGI,[35],42.3 µM
same,TGI,[36],> 100 µM
same,TGI,[37],55.6 µM
same,TGI,[58],38.1 µM
same,TGI,[38],56.2 µM
same,TGI,[39],65.7 µM
same,TGI,[40],> 100 µM
same,TGI,[41],> 100 µM
same,TGI,[42],> 100 µM
same,TGI,[43],31.8 µM
same,TGI,[59],> 100 µM
same,TGI,[44],96.2 µM
same,TGI,[45],> 100 µM
same,TGI,[46],52.6 µM
same,TGI,[47],53.1 µM
same,TGI,[48],31.6 µM
same,TGI,[49],37.8 µM
same,TGI,[50],> 100 µM
same,TGI,[51],75.6 µM
same,TGI,[52],44 µM
same,TGI,[53],41.4 µM
same,TGI,[54],48.9 µM
O=C1c2ccccc2C(=O)c2c(O)c(O)cc(O)c21,TGI,[1],64.8 µM
same,TGI,[2],> 100 µM
same,TGI,[3],> 100 µM
same,TGI,[4],> 100 µM
same,TGI,[5],69.1 µM
same,TGI,[6],> 100 µM
same,TGI,[7],> 100 µM
same,TGI,[56],> 100 µM
same,TGI,[9],> 100 µM
same,TGI,[10],> 100 µM
same,TGI,[11],> 100 µM
same,TGI,[12],69.9 µM
same,TGI,[13],> 100 µM
same,TGI,[14],86.3 µM
same,TGI,[15],> 100 µM
same,TGI,[16],96.1 µM
same,TGI,[17],64.3 µM
same,TGI,[18],> 100 µM
same,TGI,[19],> 100 µM
same,TGI,[20],70.1 µM
same,TGI,[21],> 100 µM
same,TGI,[22],> 100 µM
same,TGI,[23],> 100 µM
same,TGI,[24],> 100 µM
same,TGI,[25],> 100 µM
same,TGI,[26],> 100 µM
same,TGI,[27],56.5 µM
same,TGI,[28],> 100 µM
same,TGI,[57],77.1 µM
same,TGI,[29],76.2 µM
same,TGI,[30],> 100 µM
same,TGI,[31],> 100 µM
same,TGI,[32],> 100 µM
same,TGI,[33],> 100 µM
same,TGI,[34],> 100 µM
same,TGI,[35],> 100 µM
same,TGI,[37],97.9 µM
same,TGI,[58],85.6 µM
same,TGI,[38],> 100 µM
same,TGI,[39],> 100 µM
same,TGI,[40],> 100 µM
same,TGI,[41],> 100 µM
same,TGI,[42],> 100 µM
same,TGI,[43],85.4 µM
same,TGI,[59],> 100 µM
same,TGI,[44],82.7 µM
same,TGI,[45],> 100 µM
same,TGI,[47],> 100 µM
same,TGI,[48],49.2 µM
same,TGI,[51],> 100 µM
same,TGI,[52],> 100 µM
same,TGI,[53],> 100 µM
same,TGI,[54],66 µM
